Among the data in US11912682B2, “Isoindolinone compounds” (Monte Rosa Therapeutics, Inc., priority 2021, dated 2024) are IC50 and DC50 values, retold here.

Bounds are passed on as bounds.

GSPT1, sequence (P15170 whole entry): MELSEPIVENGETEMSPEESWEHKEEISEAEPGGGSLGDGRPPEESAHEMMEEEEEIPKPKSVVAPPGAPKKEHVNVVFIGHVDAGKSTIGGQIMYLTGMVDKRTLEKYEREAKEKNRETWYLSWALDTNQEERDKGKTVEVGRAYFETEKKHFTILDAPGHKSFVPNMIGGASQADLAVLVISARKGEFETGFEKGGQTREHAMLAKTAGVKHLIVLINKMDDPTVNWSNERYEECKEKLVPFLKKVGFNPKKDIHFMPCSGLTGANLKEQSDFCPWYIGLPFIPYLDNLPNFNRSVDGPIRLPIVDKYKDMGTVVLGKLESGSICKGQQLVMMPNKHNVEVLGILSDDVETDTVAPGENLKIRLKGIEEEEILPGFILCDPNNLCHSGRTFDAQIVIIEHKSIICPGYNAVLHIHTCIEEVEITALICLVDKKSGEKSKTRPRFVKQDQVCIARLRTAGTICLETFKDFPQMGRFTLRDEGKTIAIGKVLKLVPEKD
GSPT1, sequence (Q96SW2 whole entry): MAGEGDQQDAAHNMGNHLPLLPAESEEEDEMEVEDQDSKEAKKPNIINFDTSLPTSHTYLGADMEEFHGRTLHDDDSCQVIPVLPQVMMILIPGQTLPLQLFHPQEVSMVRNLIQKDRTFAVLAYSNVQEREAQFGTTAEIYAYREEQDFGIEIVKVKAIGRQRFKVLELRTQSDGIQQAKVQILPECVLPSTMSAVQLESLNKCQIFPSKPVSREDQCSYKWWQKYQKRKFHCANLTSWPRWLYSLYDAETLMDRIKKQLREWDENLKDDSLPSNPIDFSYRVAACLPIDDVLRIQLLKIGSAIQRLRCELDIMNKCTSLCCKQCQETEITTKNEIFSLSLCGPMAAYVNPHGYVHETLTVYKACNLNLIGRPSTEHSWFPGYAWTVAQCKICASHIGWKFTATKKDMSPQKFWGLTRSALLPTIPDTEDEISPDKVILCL
GSPT1, sequence (Q16531 2-1140 partner): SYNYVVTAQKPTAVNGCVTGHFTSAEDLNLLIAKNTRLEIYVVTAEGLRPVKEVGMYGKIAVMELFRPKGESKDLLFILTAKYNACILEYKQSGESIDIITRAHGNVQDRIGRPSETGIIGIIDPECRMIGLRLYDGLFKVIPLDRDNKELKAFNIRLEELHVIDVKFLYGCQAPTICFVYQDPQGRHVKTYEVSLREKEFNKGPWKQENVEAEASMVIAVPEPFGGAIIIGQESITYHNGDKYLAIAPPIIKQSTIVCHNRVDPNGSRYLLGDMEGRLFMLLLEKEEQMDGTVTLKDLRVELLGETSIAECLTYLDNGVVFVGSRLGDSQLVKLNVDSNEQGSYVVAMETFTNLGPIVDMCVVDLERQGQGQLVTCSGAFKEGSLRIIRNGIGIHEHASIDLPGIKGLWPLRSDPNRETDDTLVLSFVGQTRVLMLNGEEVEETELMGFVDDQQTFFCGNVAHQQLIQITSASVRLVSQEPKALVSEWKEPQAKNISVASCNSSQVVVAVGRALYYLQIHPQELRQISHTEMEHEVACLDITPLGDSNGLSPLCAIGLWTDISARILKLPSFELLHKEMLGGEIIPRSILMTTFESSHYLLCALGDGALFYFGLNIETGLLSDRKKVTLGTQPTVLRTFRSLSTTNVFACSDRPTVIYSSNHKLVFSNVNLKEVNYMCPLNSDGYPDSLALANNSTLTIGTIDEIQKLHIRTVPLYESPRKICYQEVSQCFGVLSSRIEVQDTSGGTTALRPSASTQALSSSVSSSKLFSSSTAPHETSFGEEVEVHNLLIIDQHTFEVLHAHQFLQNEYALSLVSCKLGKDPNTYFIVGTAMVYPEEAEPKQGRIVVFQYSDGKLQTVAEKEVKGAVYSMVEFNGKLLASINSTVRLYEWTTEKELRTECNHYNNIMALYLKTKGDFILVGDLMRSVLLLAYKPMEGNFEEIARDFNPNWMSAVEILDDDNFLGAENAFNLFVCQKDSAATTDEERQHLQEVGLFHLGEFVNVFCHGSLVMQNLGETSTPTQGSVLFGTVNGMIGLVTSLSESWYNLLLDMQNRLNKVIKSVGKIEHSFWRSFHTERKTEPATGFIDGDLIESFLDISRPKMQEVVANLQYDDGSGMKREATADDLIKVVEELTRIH
Full length wild-type cereblon CRBN, sequence (Q96SW2 whole entry): as the sequence (Q96SW2 whole entry) above

The target in one assay is Full length wild-type cereblon CRBN (Homo sapiens (Human), UniProt Q96SW2). As to the kind of experiment: fluorescence polarization (FP) assay, cereblon binding. Particulars: read-out: IC50 value. The text has this:
Compound activity was monitored in a fluorescence polarization (FP) homogeneous assay using 1-[5-({2-[2-(2-{[2-(2,6-dioxopiperidin-3-yl)-1,3-dioxo-2,3-dihydro-1H-isoindol-4-yl]oxy}acetamido)ethoxy]ethyl}carbamoyl)pentyl]-3,3-dimethyl-2-[(1E,3E)-5-[(2E)-1,3,3-trimethyl-5-sulfo-2,3-dihydro-1H-indol-2-ylidene]penta-1,3-dien-1-yl]-3H-indol-1-ium-5-sulfonate as a fluorescent probe. Unless otherwise stated, all reagents were purchased from Sigma Aldrich. […] Full length wild-type cereblon CRBN (80.0 nM, 10 μL) was incubated in assay buffer containing 20 mM HEPES (pH 8.0), […], 0.5 mM TCEP and 0.05% Tween 20 in the presence or absence of compound (300 nL). Inhibitors were stored as 10 mM DMSO stocks in an inert environment (low humidity, dark, low oxygen, room temperature) using the Storage Pod System. […] Following incubation at room temperature for 30 min, the assay was initiated by dispensing the probe to a final concentration of 5 nM (2.5 nL of a 20 μM stock) using the Echo ESXX. […] The FP signal was subsequently normalized to the no-compound control (i.e., DMSO). Analysis and IC50 values were derived using Dotmatics (Dotmatics UK) software.
Take `O=C1CCC(N2Cc3ccc(COC(=O)Nc4ccc(N5CCOCC5)nc4)cc3C2=O)C(=O)N1` (stereo not shown) [Compound 76]: the IC50 is under 1100 nM.
The same measure, in the same setting: to `CC1CCCCN1c1ccc(NC(=O)OCc2ccc3c(c2)C(=O)N(C2CCC(=O)NC2=O)C3)cn1` (stereo not shown) [Compound 77] belongs under 1100 nM; to `CC1(C)COc2cc(NC(=O)OCc3ccc4c(c3)C(=O)N(C3CCC(=O)NC3=O)C4)ccc21` (stereo not shown) [Compound 83], under 1100 nM; to `Cc1ccccc1-c1ccc(NC(=O)OCc2ccc3c(c2)C(=O)N(C2CCC(=O)NC2=O)C3)cn1` (stereo not shown) [Compound 86], under 1100 nM.
On the same count and under the same terms, to `COc1ccccc1-c1ccc(NC(=O)OCc2ccc3c(c2)C(=O)N(C2CCC(=O)NC2=O)C3)cn1` (stereo not shown) [Compound 87] belongs under 1100 nM.
Still for that read-out and setting: the result for `Cc1cc(NC(=O)OCc2ccc3c(c2)C(=O)N(C2CCC(=O)NC2=O)C3)cnc1-c1ccccc1` (stereo not shown) [Compound 88] reads under 1100 nM; that for `CN(C)C1CN(c2ccc(NC(=O)OCc3ccc4c(c3)C(=O)N(C3CCC(=O)NC3=O)C4)cn2)C1` (stereo not shown) [Compound 89], under 1100 nM; that for `Cc1ncc(NC(=O)OCc2ccc3c(c2)C(=O)N(C2CCC(=O)NC2=O)C3)cc1OC(F)(F)F` (stereo not shown) [Compound 91], under 1100 nM.
Turning to `O=C1CCC(N2Cc3ccc(COC(=O)Nc4ccc5c(c4)OCCC5)cc3C2=O)C(=O)N1` (stereo not shown) [Compound 92], the IC50 is under 1100 nM.
On the same count and under the same terms, to `O=C1CCC(N2Cc3ccc(COC(=O)Nc4cccc(OC5CC5)c4)cc3C2=O)C(=O)N1` (stereo not shown) [Compound 93] belongs under 1100 nM; to `COc1ccccc1CNC(=O)OCc1ccc2c(c1)C(=O)N(C1CCC(=O)NC1=O)C2` (stereo not shown) [Compound 97], under 1100 nM.
The same measure, in the same setting: the result for `O=C1CCC(N2Cc3ccc(COC(=O)NCc4ccccc4)cc3C2=O)C(=O)N1` (stereo not shown) [Compound 98] reads under 1100 nM.
On the same count and under the same terms, to `O=C1CCC(N2Cc3ccc(COC(=O)Nc4cc(CN5CC6CC5CO6)cc(OC(F)F)c4)cc3C2=O)C(=O)N1` (stereo not shown) [Compound 100] belongs under 1100 nM.

Staying with this assay, now noted: read-out: rFP IC50.
For the compound `O=C1CCC(N2Cc3ccc(COC(=O)Nc4ccc(N5CCC(F)(F)CC5)nc4)cc3C2=O)C(=O)N1` (stereo not shown) [Compound 78], the IC50 is under 500 nM.
On the same count and under the same terms, to `O=C1CCC(N2Cc3ccc(COC(=O)Nc4ccc(C5CC5)nc4)cc3C2=O)C(=O)N1` (stereo not shown) [Compound 80] belongs under 500 nM; to `O=C1CCC(N2Cc3ccc(COC(=O)Nc4ccc(C5COC5)cc4)cc3C2=O)C(=O)N1` (stereo not shown) [Compound 81], under 500 nM.
Same read-out and setting: the result for `CN1CCN(c2ccc(NC(=O)OCc3ccc4c(c3)C(=O)N(C3CCC(=O)NC3=O)C4)cn2)CC1` (stereo not shown) [Compound 82] reads under 500 nM.
Same read-out and setting: the result for `O=C1CCC(N2Cc3ccc(COC(=O)Nc4ccc(-c5ccccc5F)nc4)cc3C2=O)C(=O)N1` (stereo not shown) [Compound 84] reads under 500 nM; that for `O=C1CCC(N2Cc3ccc(COC(=O)Nc4cnc(-c5ccccc5)c(F)c4)cc3C2=O)C(=O)N1` (stereo not shown) [Compound 85], over 1700 nM; that for `O=C1CCC(N2Cc3ccc(COC(=O)Nc4cnc(N5CCCCC5)cn4)cc3C2=O)C(=O)N1` (stereo not shown) [Compound 94], under 500 nM.

The target of a further assay is GSPT1 (Homo sapiens (Human), UniProt P15170+Q96SW2). As to the kind of experiment: immunofluorescence assay for GSPT1 degradation in CAL-51 cells (Example 4). Type of assay: cell-based. The conditions noted are these: 6 hours, read-out: Activity for GSPT1 degradation, Code (DC50). Summed up:
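CAL-51 cells on fibronectin-coated plates were treated 6 h with serial dilutions (30 μM to 0.1 nM), then fixed and immunostained for GSPT1 with DAPI and phalloidin counterstains. Per-cell mean GSPT1 intensity from high-content imaging, normalized to controls; DC50 by non-linear regression.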
`O=C1CCC(N2Cc3ccc(COC(=O)Nc4ccc(N5CCOCC5)nc4)cc3C2=O)C(=O)N1` (stereo not shown) [Compound 76]: the DC50 was 30 to 300 nM.
Still for that read-out and setting: the result for `CC1CCCCN1c1ccc(NC(=O)OCc2ccc3c(c2)C(=O)N(C2CCC(=O)NC2=O)C3)cn1` (stereo not shown) [Compound 77] reads under 30 nM; that for `O=C1CCC(N2Cc3ccc(COC(=O)Nc4ccc(N5CCC(F)(F)CC5)nc4)cc3C2=O)C(=O)N1` (stereo not shown) [Compound 78], 30 to 300 nM.
Consider `O=C1CCC(N2Cc3ccc(COC(=O)Nc4ccc(C5CC5)nc4)cc3C2=O)C(=O)N1` (stereo not shown) [Compound 80], for which the DC50 lay in the range of 30 to 300 nM.
With `O=C1CCC(N2Cc3ccc(COC(=O)Nc4ccc(C5COC5)cc4)cc3C2=O)C(=O)N1` (stereo not shown) [Compound 81], the DC50 is 30 to 300 nM.
Still for that read-out and setting: the result for `CN1CCN(c2ccc(NC(=O)OCc3ccc4c(c3)C(=O)N(C3CCC(=O)NC3=O)C4)cn2)CC1` (stereo not shown) [Compound 82] reads over 300 nM.
As for `CC1(C)COc2cc(NC(=O)OCc3ccc4c(c3)C(=O)N(C3CCC(=O)NC3=O)C4)ccc21` (stereo not shown) [Compound 83], the DC50 is under 30 nM.
On the same count and under the same terms, to `O=C1CCC(N2Cc3ccc(COC(=O)Nc4ccc(-c5ccccc5F)nc4)cc3C2=O)C(=O)N1` (stereo not shown) [Compound 84] belongs under 30 nM.
Turning to `O=C1CCC(N2Cc3ccc(COC(=O)Nc4cnc(-c5ccccc5)c(F)c4)cc3C2=O)C(=O)N1` (stereo not shown) [Compound 85], the DC50 is under 30 nM.
The same measure, in the same setting: the result for `Cc1ccccc1-c1ccc(NC(=O)OCc2ccc3c(c2)C(=O)N(C2CCC(=O)NC2=O)C3)cn1` (stereo not shown) [Compound 86] reads under 30 nM.
Same read-out and setting: the result for `COc1ccccc1-c1ccc(NC(=O)OCc2ccc3c(c2)C(=O)N(C2CCC(=O)NC2=O)C3)cn1` (stereo not shown) [Compound 87] reads under 30 nM.
On the same count and under the same terms, the result for `Cc1cc(NC(=O)OCc2ccc3c(c2)C(=O)N(C2CCC(=O)NC2=O)C3)cnc1-c1ccccc1` (stereo not shown) [Compound 88] reads under 30 nM; that for `CN(C)C1CN(c2ccc(NC(=O)OCc3ccc4c(c3)C(=O)N(C3CCC(=O)NC3=O)C4)cn2)C1` (stereo not shown) [Compound 89], over 300 nM.
For `Cc1ncc(NC(=O)OCc2ccc3c(c2)C(=O)N(C2CCC(=O)NC2=O)C3)cc1OC(F)(F)F` (stereo not shown) [Compound 91], the DC50 was under 30 nM.
The same measure, in the same setting: to `O=C1CCC(N2Cc3ccc(COC(=O)Nc4ccc5c(c4)OCCC5)cc3C2=O)C(=O)N1` (stereo not shown) [Compound 92] belongs under 30 nM.
On to `O=C1CCC(N2Cc3ccc(COC(=O)Nc4cccc(OC5CC5)c4)cc3C2=O)C(=O)N1` (stereo not shown) [Compound 93], for which the DC50 was in the range of 30 to 300 nM.
Take `O=C1CCC(N2Cc3ccc(COC(=O)Nc4cnc(N5CCCCC5)cn4)cc3C2=O)C(=O)N1` (stereo not shown) [Compound 94]: the DC50 fell in the range of 30 to 300 nM.
On to `COc1ccccc1CNC(=O)OCc1ccc2c(c1)C(=O)N(C1CCC(=O)NC1=O)C2` (stereo not shown) [Compound 97], for which the DC50 was over 300 nM.
Same read-out and setting: to `O=C1CCC(N2Cc3ccc(COC(=O)NCc4ccccc4)cc3C2=O)C(=O)N1` (stereo not shown) [Compound 98] belongs over 300 nM; to `O=C1CCC(N2Cc3ccc(COC(=O)Nc4cc(CN5CC6CC5CO6)cc(OC(F)F)c4)cc3C2=O)C(=O)N1` (stereo not shown) [Compound 100], 30 to 300 nM.

Still in this assay, the particulars now being: GSPT1 degradation, read-out: DC50 value.
As for `CC1CCCCN1c1ccc(NC(=O)OCc2ccc3c(c2)C(=O)N(C2CCC(=O)NC2=O)C3)cn1` (stereo not shown) [Compound 77], the DC50 is at most 30 nM.
Same read-out and setting: the result for `CC1(C)COc2cc(NC(=O)OCc3ccc4c(c3)C(=O)N(C3CCC(=O)NC3=O)C4)ccc21` (stereo not shown) [Compound 83] reads at most 30 nM.
For `O=C1CCC(N2Cc3ccc(COC(=O)Nc4ccc(-c5ccccc5F)nc4)cc3C2=O)C(=O)N1` (stereo not shown) [Compound 84], the DC50 is at most 30 nM.
Still for that read-out and setting: to `O=C1CCC(N2Cc3ccc(COC(=O)Nc4cnc(-c5ccccc5)c(F)c4)cc3C2=O)C(=O)N1` (stereo not shown) [Compound 85] belongs at most 30 nM.
On the same count and under the same terms, to `Cc1ccccc1-c1ccc(NC(=O)OCc2ccc3c(c2)C(=O)N(C2CCC(=O)NC2=O)C3)cn1` (stereo not shown) [Compound 86] belongs at most 30 nM.
The same measure, in the same setting: the result for `COc1ccccc1-c1ccc(NC(=O)OCc2ccc3c(c2)C(=O)N(C2CCC(=O)NC2=O)C3)cn1` (stereo not shown) [Compound 87] reads at most 30 nM; that for `Cc1cc(NC(=O)OCc2ccc3c(c2)C(=O)N(C2CCC(=O)NC2=O)C3)cnc1-c1ccccc1` (stereo not shown) [Compound 88], at most 30 nM; that for `Cc1ncc(NC(=O)OCc2ccc3c(c2)C(=O)N(C2CCC(=O)NC2=O)C3)cc1OC(F)(F)F` (stereo not shown) [Compound 91], at most 30 nM.
Regarding `O=C1CCC(N2Cc3ccc(COC(=O)Nc4ccc5c(c4)OCCC5)cc3C2=O)C(=O)N1` (stereo not shown) [Compound 92], the DC50 is at most 30 nM.
